Data taken from publication PMC3265452 (PLoS Neglected Tropical Diseases, 2012).
Structures can show the parent of a compound that is named as a salt.

Biological target: AaDOP2 (Aedes aegypti, UniProt H6D5H2)
Experiment: AaDOP2 antagonist screen of the LOPAC1280 library (HEK-CRELuc-Aadop2 cells, luminescence)
Type: cell-based
Conditions: not given

Chain of AaDOP2 (H6D5H2 1-476): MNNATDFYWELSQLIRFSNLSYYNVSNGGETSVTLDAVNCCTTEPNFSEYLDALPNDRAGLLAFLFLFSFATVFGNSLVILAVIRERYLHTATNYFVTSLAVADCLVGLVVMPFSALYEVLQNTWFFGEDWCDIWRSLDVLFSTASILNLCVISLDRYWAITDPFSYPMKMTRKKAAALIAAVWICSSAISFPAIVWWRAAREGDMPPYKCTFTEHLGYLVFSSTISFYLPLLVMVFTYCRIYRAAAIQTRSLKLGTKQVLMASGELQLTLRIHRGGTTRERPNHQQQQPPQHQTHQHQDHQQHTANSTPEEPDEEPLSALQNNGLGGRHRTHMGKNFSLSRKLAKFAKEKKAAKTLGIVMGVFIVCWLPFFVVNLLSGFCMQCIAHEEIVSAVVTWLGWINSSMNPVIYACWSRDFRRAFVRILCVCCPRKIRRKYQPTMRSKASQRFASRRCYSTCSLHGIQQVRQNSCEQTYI

Compound | Compound effect (percent receptor signaling in presence of test compound, relative lux units relative to the SCH23390 control)
N[C@@H](Cc1c[nH]c2ccccc12)C(=O)O [Compound 1143, L-Tryptophan] | 114
COc1cccc(-c2cc(=O)c3ccccc3o2)c1N [Compound 1023, PD 98,059] | 94
N.N.[Cl][Pt][Cl] [Compound 940, Cisplatin] | 88
CCN(CC)CCOCCOC(=O)C1(c2ccccc2)CCCC1 [Compound 264, Carbetapentane citrate] | 93
N#CC(C#N)=Cc1ccc(O)c(O)c1 [Compound 1196, Tyrphostin 23] | 79
O=C(O)[C@@H]1C[C@H](C(=O)O)N1 [Compound 145, cis-Azetidine-2,4-dicarboxylic acid] | 112
CC(Cc1ccc(O)cc1)NCC(O)c1cc(O)cc(O)c1 (stereo not shown) [Compound 511, Fenoterol hydrobromide] | 136
Cc1cc(C(C)(C)C)c(O)c(C)c1CC1=NCCN1 [Compound 899, Oxymetazoline hydrochloride] | 84
CCCCCCCCCCCCCCCC(=O)OC(CC(=O)O)C[N+](C)(C)C.[Cl-] (racemic) [Compound 943, Palmitoyl-DL-Carnitine chloride] | 59
O=c1c(-c2ccc(O)cc2)coc2cc(O)cc(O)c12 [Compound 556, Genistein] | 67
C[C@@H](NC(=O)/C(C#N)=C/c1ccc(O)c(O)c1)c1ccccc1 [Compound 1174, Tyrphostin AG 527] | 81
NC(=O)COc1c(F)cc(SCCNS(=O)(=O)c2ccccc2)cc1F [Compound 800, 2,6-Difluoro-4-[2-(phenylsulfonylamino)ethylthio]phenoxyacetamide] | 89
COc1cc(OC)c(C=C2C(O)=Nc3ccccc32)c(OC)c1 [Compound 1014, IC 261] | 78
CC[C@H]1CN2CCc3cc(OC)c(OC)cc3[C@@H]2C[C@@H]1C[C@H]1NCCc2cc(OC)c(OC)cc21 [Compound 478, Emetine dihydrochloride hydrate] | 14
Oc1ccc(O)cc1 [Compound 610, Hydroquinone] | 89
CCC1(C2=NCCN2)Cc2ccccc2O1 (stereo not shown) [Compound 485, Efaroxan hydrochloride] | 74
Br.NCc1cc(O)no1 [Compound 564, Muscimol hydrobromide] | 130
Cc1c(CC(C)(C)C(=O)O)n(Cc2ccc(Cl)cc2)c2ccc(F)cc12 [Compound 715, L-655,240] | 73
NC(=O)c1ccccc1 [Compound 160, Benzamide] | 100

Compound | Compound effect (percent receptor signaling in presence of test compound, relative lux units relative to the SCH23390 control)
COc1cc(C(=O)OCCCN2CCCN(CCCOC(=O)c3cc(OC)c(OC)c(OC)c3)CC2)cc(OC)c1OC [Compound 389, Dilazep hydrochloride] | 62
O=C(O)C1CN(CCCP(=O)(O)O)CCN1 (racemic) [Compound 329, (±)-CPP] | 91
Nc1ccc(CCNc2ncnc3c2ncn3[C@@H]2O[C@H](CO)[C@@H](O)[C@H]2O)cc1 [Compound 140, N6-2-(4-Aminophenyl)ethyladenosine] | 97
NC(N)=NCCCCN=C(N)N [Compound 15, Arcaine sulfate] | 122
NC(=O)N1c2ccccc2C=Cc2ccccc21 [Compound 254, Carbamazepine] | 75
Cl.c1ccc([C@H]2CN3CCSC3=N2)cc1 [Compound 717, (-)-Tetramisole hydrochloride] | 90
CC(C)C(=O)c1c(C(C)C)nn2ccccc12 [Compound 628, Ibudilast] | 136
(-)-Eseroline fumarate [Compound 504] | 56
CC(C)C[C@H](NC(=O)[C@@H](O)[C@H](N)Cc1ccccc1)C(=O)O [Compound 190, Bestatin hydrochloride] | 145
CCCCCCCCCCCCCCCC(=O)NCCO [Compound 915, Palmitoylethanolamide] | 89
CC1C2Cc3ccc(O)cc3C1(C)CCN2CC1CC1 (single isomer, unassigned; (+)) [Compound 341, (+)-Cyclazocine] | 86
N[C@@H](Cc1ccc(O)c(I)c1)C(=O)O [Compound 660, 3-Iodo-L-tyrosine] | 100
NC(=O)c1ccc(OCC(O)CN2CC=C(c3ccc(F)cc3)CC2)cc1 (stereo not shown) [Compound 1057, Ro 8-4304] | 115
CC(N)C(O)c1ccc(O)c(O)c1 (single isomer, unassigned; (-)) [Compound 388, (-)-alpha-Methylnorepinephrine] | 88
COc1cc2nc(N3CCN(C(=O)C4COc5ccccc5O4)CC3)nc(N)c2cc1OC (stereo not shown) [Compound 432, Doxazosin mesylate] | 86
NCCCCN [Compound 970, Putrescine dihydrochloride] | 88
Cc1ncc(CNC(=O)N(CCCl)N=O)c(N)n1 [Compound 874, Nimustine hydrochloride] | 88
COc1cccc(OC)c1OCCNCC1CSc2ccccc2O1 (stereo not shown) [Compound 199, Benoxathian hydrochloride] | 68
CC1(C)CCC=[N+]1[O-] [Compound 395, 5,5-Dimethyl-1-pyrroline-N-oxide] | 94

Same assay, conditions: 10 µM compound, 300 nM dopamine, 2 hr

Compound | % of the SCH23390 effect (percent inhibition of receptor response relative to the SCH23390 control) [%]
CC1(C)C(=O)N(CCN2CCC(C(=O)c3ccc(F)cc3)CC2)c2ccccc21.Cl [Compound 698, LY-310,762 hydrochloride] | 81

Same assay, conditions: 10 µM compound, 300 nM dopamine, 2 hr; hit = compound effect <20

Compound | Compound effect (percent receptor signaling in presence of test compound, relative lux units relative to the SCH23390 control) [%]
O=C1CCC(N2C(=O)c3ccccc3C2=O)C(=O)N1 (racemic) [Compound 1227, (±)-Thalidomide] | 107
Cl.O=C(O)C1CCCN(CCC=C(c2ccccc2)c2ccccc2)C1 (stereo not shown) [Compound 1124, SKF 89976A hydrochloride] | 95
Br.CCCN(CCC)C1CCc2cccc(O)c2C1 (racemic) [Compound 602, (±)-8-Hydroxy-DPAT hydrobromide] | 102
NC(CO)(CO)CO.O=C(c1ccccc1)c1ccc2n1CCC2C(=O)O (stereo not shown) [Compound 684, Ketorolac tris salt] | 98
O=C(Nc1cc(C(=O)Nc2ccc(S(=O)(=O)[O-])cc2S(=O)(=O)[O-])cc(C(=O)Nc2ccc(S(=O)(=O)[O-])cc2S(=O)(=O)[O-])c1)Nc1cc(C(=O)Nc2ccc(S(=O)(=O)[O-])cc2S(=O)(=O)[O-])cc(C(=O)Nc2ccc(S(=O)(=O)[O-])cc2S(=O)(=O)[O-])c1.[Na+].[Na+].[Na+].[Na+].[Na+].[Na+].[Na+].[Na+] [Compound 855, NF449 octasodium salt] | 112
CC1(C)C(=O)N(CCN2CCC(C(=O)c3ccc(F)cc3)CC2)c2ccccc21.Cl [Compound 698, LY-310,762 hydrochloride] | 19
COc1ccc(NC(=O)c2ccc(-c3ccc(-c4noc(C)n4)cc3C)cc2)cc1N1CCN(C)CC1.Cl [Compound 799, GR 127935 hydrochloride] | 90
CCN1CCC[C@H]1CNC(=O)c1c(O)c(Cl)cc(Cl)c1OC.O=C(O)C(O)C(O)C(=O)O (racemic) [Compound 1069, S(+)-Raclopride L-tartrate] | 76
OC[C@H]1O[C@@H](n2cnc3ccccc32)[C@H](O)[C@@H]1O [Compound 367, D-ribofuranosylbenzimidazole] | 24
Cl.Cl.NCCC(=O)NCCc1cnc[nH]1 [Compound 237, Carcinine dihydrochloride] | 95
Br.C=CCN1CCc2c(cc(O)c(O)c2Br)[C@@H](c2ccccc2)C1 [Compound 206, R(+)-6-Bromo-APB hydrobromide] | 182
CC(N)(C(=O)O)c1ccc(C(=O)O)cc1 (racemic) [Compound 771, (±)-alpha-Methyl-4-carboxyphenylglycine] | 108

Same assay, conditions: read-out: % of the SCH23390 effect (percent inhibition of receptor response relative to the SCH23390 control)

Compound | inhibition at 10 µM [%]
CC[C@H]1CN2CCc3cc(OC)c(OC)cc3[C@@H]2C[C@@H]1C[C@H]1NCCc2cc(OC)c(OC)cc21 [Compound 478, Emetine dihydrochloride hydrate] | 86
